As a reminder, the IC50 is the concentration that inhibits the measured activity by half. Lower therefore signals higher potency.

Data set [1] relates to HepG2 (hepatocellular carcinoma). Put plainly: CCK-8 anti-proliferative assay, HepG2. The class given is cell-based. The note with it: Homo sapiens, CCK-8 assay, average of three independent experiments in triplicate. The protocol: (§1) CCK8 is much more convenient and helpful than MTT for analyzing cell proliferation, because it can be reduced to soluble formazan by dehydrogenase in mitochondria and has little toxicity to cells. Cell proliferation was determined using CCK8 dye (BeyotimeInst Biotech, Shanghai, China) according to manufacturer’s instructions. Briefly, 1–5 × 10^3 cells per well were seeded in a 96-well plate, grown at 37 °C for 12 h, Subsequently, cells were treated with compounds at increasing concentrations in the presence of 10% FBS for 24 or 48 h. After 10 µL CCK8 dye was added to each well, cells were incubated at 37 °C for 1–2 h and Plates were read in a Victor-V multilabel counter (Perkin-Elmer, Waltham, MA, USA) using the default europium detection protocol. Percent inhibition or IC50 values of compounds were calculated by comparison with DMSO-treated control wells.
Background: Formazan colour is commonly taken as a measure of viable cells.

Data set [2] relates to HeLa (cervix of uterus adenocarcinoma). The experiment in a line: CCK-8 anti-proliferative assay, HeLa. The class given is cell-based. The note with it: Homo sapiens, CCK-8 assay, average of three independent experiments in triplicate. The protocol:
as §1

In data set [3] the test system is A549 (lung carcinoma). The experiment in a line: CCK-8 anti-proliferative assay, A549. Format: cell-based. The following applies: Homo sapiens, CCK-8 assay, average of three independent experiments in triplicate. How it is done: as §1
For data set [4], the target named is T1, EGFR (Homo sapiens, UniProt P00533).
T1 construct: EGFR cytoplasmic domain (EGFR-CD, amino acids 645–1186); (His)6 (N); made in house; host or cells: Sf-9 insect cells (baculovirus)
The experiment in a line: EGFR kinase autophosphorylation assay (DELFIA/time-resolved fluorometry). Format: biochemical. The note with it: in vitro EGFR enzyme inhibition. The protocol: A sequence that encodes (His)6 was located at the 5′ upstream to the EGFR sequences. Sf-9 cells were infected for 3 days for protein expression. Sf-9 cell pellets were solubilized at 0 °C in a buffer at pH 7.4 containing 50 mM HEPES, 10 mM NaCl, 1% Triton, 10 µM ammonium molybdate, 100 µM sodium vanadate, 10 µg/mL aprotinin, 10 µg/mL leupeptin, 10 µg/mL pepstatin, and 16 µg/mL benzamidine HCl for 20 min followed by 20 min centrifugation. Crude extract supernatant was passed through an equilibrated Ni-NTA superflow packed column and washed with 10 mM and then 100 mM imidazole to remove nonspecifically bound material. Histidine tagged proteins were eluted with 250 and 500 mM imidazole and dialyzed against 50 mM NaCl, 20 mM HEPES, 10% glycerol, and 1 µg/mL each of aprotinin, leupeptin and pepstatin for 2 h. The entire purification procedure was performed at 4 °C or on ice.
EGFR kinase assays were set up to assess the level of autophosphorylation based on DELFIA/Time-Resolved Fluorometry. All compounds were dissolved in 100% DMSO and diluted to the appropriate concentrations with 25 mM HEPES at pH 7.4. In each well, 10 µL compound was incubated with 10 µL (5 ng for EGFR) recombinant enzyme (1:80 dilution in 100 mM HEPES) for 10 min at room temperature. Then, 10 µL of 5 mM buffer (containing 20 mM HEPES, 2 mM MnCl2, 100 µM Na3VO4 and 1 mM DTT) and 20 µL of 0.1 mM ATP–50 mM MgCl2 were added for 1 h. Positive and negative controls were included in each plate by incubation of enzyme with or without ATP–MgCl2. At the end of incubation, liquid was aspirated, and plates were washed three times with wash buffer. A 75 µL (400 ng) sample of europium labeled anti-phosphotyrosine antibody was added to each well for another 1 h of incubation. After washing, enhancement solution was added and the signal was detected by Victor (Wallac Inc., Gaithersburg, MD, USA) with excitation at 340 nm and emission at 615 nm. The percentage of auto-phosphorylation inhibition by the compounds was calculated using the following formula: 100% − [(negative control)/(positive control − negative control)]. The IC50 was obtained from curves of percentage inhibition with eight concentrations of compound.

For data set [5], the system named is S180 (sarcoma tumer cell line). Put plainly: In vivo tumor xenograft model, S180 tumor-bearing mice. The following applies: 60 mg/kg/day oral gavage, ten days; for Inhibition rate: from average tumor weights vs control. Further details: species or system Kunming mice. How it is done: (§2) Kunming mice (SPF, male or female, 20 ± 2 g) were purchased from the experimental animal center of China Pharmaceutical University. Animals were housed in a temperature (22 ± 2 °C) and relatively humidity (50%)-controlled room on a 12 h light/dark cycle, given free access to food and water, and acclimatized for at least one week prior to use. All the animal experiments were performed in accordance with the Regulations of the Experimental Animal Administration issued by the State Committee of Science and Technology of China.
(§3) Cell lines used for evaluation of the in vivo antitumor activity in this study included three tumor cell lines, namely S180 (sarcoma tumer cell line), HepG2 (liver carcinoma cell line), EAC (Ehrlich ascites carcinoma cell line). All of cell lines were purchased by the Shanghai Institutes for Biological Sciences, Chinese Academy of Sciences, and the cells were cultured in RPMI-1640 medium, which was supplemented with 10% heat-inactivated fetal bovine serum, 100 U/mL penicillin and 100 U/mL streptomycin and cultured in an atmosphere of 5% CO2 at 37 °C. Cells were collected for the experiments in the logarithmic growth phase.
(§4) To establish the tumor-bearing mouse model, the cell lines were harvested and inoculated subcutaneously into the right armpit region of the mice. On the 7th day, the tumor ascrites were obtained and washed with sterile PBS. Under sterile condition, the tumor ascrites were diluted with sterile nomal saline to 1 × 10^10 /L cell suspension. Tumor ascites were maintained in vivo in mice by transplantation of 0.2 mL of ascites (2 × 10^6 cells) from the infected mice to the non-infected mice.
(§5) Each Kunming mouse (male or female, weight 20 ± 2 g) were inoculated with seven-day-old ascrite (0.2 mL, 2 × 10^6 cells) subcutaneously into the right front armpit. 24 h after implantation of tumor cells, the mice were randomly divided into five test groups with 10 mice per group. Each mouse was weighed immediately after inoculation. The mice were treated by oral gavage with test samples (60 mg/kg/day) or normal saline (NS, 10 mL/kg) for ten days once daily. On day 11, the mice were sacrificed via cervical dislocation, and the mouse and tumor were excised and weighed for evaluating the tumor growth inhibition. The tumor inhibitory rate was calculated by the following formula: [drawing 5] (1) where Wcontrol and Wtreated were the average tumor weights of the control and treated mice, respectively. […] The effect of glycyrrhizin analogs on percentage increases in life span was calculated on the basis of mortality of the experimental mice: […]

For data set [6], the system named is HepG2 (liver carcinoma cell line). The experiment in a line: In vivo tumor xenograft model, HepG2 tumor-bearing mice. Further details: species or system Kunming mice. The following applies: 60 mg/kg/day oral gavage, ten days; for Inhibition rate: from average tumor weights vs control. The protocol: as §2, §3, §4, §5
For data set [7], the system named is EAC (Ehrlich ascites carcinoma cell line). The experiment in a line: Survival of EAC tumor-bearing mice. Format: in vivo, Kunming mice. The following applies: for Survival time: control 16.40 ± 2.07 d; for Survival rate: percentage increase in life span vs control. The protocol:
as §2, §3, §4, §5

T1 sequence (P00533 669-1210): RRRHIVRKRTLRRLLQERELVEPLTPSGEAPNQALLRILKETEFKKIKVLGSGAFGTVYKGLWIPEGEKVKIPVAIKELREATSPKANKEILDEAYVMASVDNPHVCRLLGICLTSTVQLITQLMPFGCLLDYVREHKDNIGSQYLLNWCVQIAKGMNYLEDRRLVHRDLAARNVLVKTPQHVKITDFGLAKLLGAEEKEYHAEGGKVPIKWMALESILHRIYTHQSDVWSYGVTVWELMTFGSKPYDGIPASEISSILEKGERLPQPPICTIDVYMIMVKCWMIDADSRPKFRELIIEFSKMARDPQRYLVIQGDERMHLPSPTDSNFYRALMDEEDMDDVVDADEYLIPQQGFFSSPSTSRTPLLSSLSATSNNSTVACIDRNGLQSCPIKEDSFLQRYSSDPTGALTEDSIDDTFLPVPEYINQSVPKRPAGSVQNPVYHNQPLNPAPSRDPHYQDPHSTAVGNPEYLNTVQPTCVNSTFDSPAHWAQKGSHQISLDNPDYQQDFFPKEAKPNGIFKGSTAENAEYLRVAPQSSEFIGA

Take `CC1(C(=O)O)CCC2(C)CCC3(C)C(=CC(=O)C4C5(C)CCC(OC6OC(C(=O)O)C(O)C(O)C6OC6OC(C(=O)O)C(O)C(O)C6O)C(C)(C)C5CCC43C)C2C1` (stereo not drawn) [18α-GA, 18α-Glycyrrhizin]: the IC50 was found to be 54.2 µM in data set [1], 15.1 µM in data set [2], 41.6 µM in data set [3] and 0.081 µM in data set [4]. In addition, the “Body weight End” value in data set [5] is 25.20 ± 1.11 g; in data set [6], 26.08 ± 1.26 g. Also, the Tumor weight in data set [5] turned out to be 1.29 ± 0.47 g; in data set [6], 1.22 ± 0.46 g. Also, the results for the Inhibition rate in data set [5] and in data set [6] were 32.5% and 37.4%, respectively. The same compound displayed a Survival time in data set [7] of 19.75 ± 3.08 days. Also, the Survival rate in data set [7] worked out at 20.4%.
Regarding `CC1(C)[C@@H](O[C@@H]2O[C@H](C(=O)O)[C@@H](O)[C@H](O)[C@H]2O)CC[C@]2(C)[C@H]3C(=O)C=C4[C@H]5C[C@@](C)(C(=O)O)CC[C@]5(C)CC[C@@]4(C)[C@]3(C)CC[C@@H]12` [18α-GAMG], the concentration for half-maximal inhibition (IC50) came to 6.67 µM in data set [1], 7.43 µM in data set [2], 15.8 µM in data set [3] and 0.028 µM in data set [4]. The “Body weight End” value in data set [5] is listed as 25.25 ± 1.80 g; in data set [6] it was 27.02 ± 2.10 g. The Tumor weight in data set [5] was determined as 1.15 ± 0.50 g; in data set [6] it was 0.98 ± 0.43 g. Besides, the Inhibition rate in data set [5] was 39.8%; in data set [6], 49.7%. Also, in data set [7], the Survival time was determined as 23.85 ± 5.41 days. Further, in data set [7], the Survival rate came to 45.4%.
Consider `CC1(C)[C@@H](O[C@H]2O[C@H](C(=O)O)[C@@H](O)[C@H](O)[C@H]2O[C@@H]2O[C@H](C(=O)O)[C@@H](O)[C@H](O)[C@H]2O)CC[C@]2(C)[C@H]3C(=O)C=C4[C@@H]5C[C@@](C)(C(=O)O)CC[C@]5(C)CC[C@@]4(C)[C@]3(C)CC[C@@H]12` [18β-GA, Glycyrrhizin], for which the 50% inhibitory concentration (IC50) in data set [1] is 63.6 µM; in data set [2], 18.9 µM; in data set [3], 51.9 µM; in data set [4], 0.092 µM. For the same compound, the “Body weight End” value in data set [5] is on record as 24.48 ± 2.37 g; in data set [6] it was 26.94 ± 2.05 g. The Tumor weight in data set [5] stood at 1.33 ± 0.67 g; in data set [6] it was 1.26 ± 0.65 g. In addition, the Inhibition rate in data set [5] is 30.4%; in data set [6], 35.4%. Moreover, in data set [7], the Survival time was determined as 19.40 ± 3.77 days. Further, the Survival rate in data set [7] is listed as 18.3%.
Take `CC1(C)[C@@H](O[C@@H]2O[C@H](C(=O)O)[C@@H](O)[C@H](O)[C@H]2O)CC[C@]2(C)[C@H]3C(=O)C=C4[C@@H]5C[C@@](C)(C(=O)O)CC[C@]5(C)CC[C@@]4(C)[C@]3(C)CC[C@@H]12` [18β-GAMG, glycyrrhetic acid 3-O-mono-β-D-glucuronide]: the IC50 in data set [1] is 33.6 µM; in data set [2], 8.39 µM; in data set [3] it was 21.6 µM; in data set [4] it was 0.069 µM. Besides, the results for the “Body weight End” value in data set [5] and in data set [6] were 25.02 ± 2.58 g and 27.8 ± 1.57 g, respectively. The figures for the Tumor weight in data set [5] and in data set [6] were 1.25 ± 0.19 g and 1.20 ± 0.35 g, respectively. Moreover, the Inhibition rate worked out at 34.6% in data set [5] and 38.4% in data set [6]. For the same compound, the Survival time in data set [7] is 21.05 ± 4.65 days. For the same compound, the Survival rate in data set [7] is 28.4%.
`C#Cc1cccc(Nc2ncnc3cc(OCCOC)c(OCCOC)cc23)c1` [Erlotinib, reference compound]: the IC50 was 0.12 µM in data set [1], 0.2 µM in data set [2] and 0.13 µM in data set [3].

The record behind these values is PMC6271220, “Synthesis, Molecular Docking and Biological Evaluation of Glycyrrhizin Analogs as Anticancer Agents Targeting EGFR” (Molecules, 2014).
